Holding throughout (assay type): in vivo
The subject of experiment [1] is Plutella xylostella. As to the kind of experiment: Insecticidal effect for Plutella xylostella by immersion treatment of host crop (Test Example 1). To be noted: foliar, 120 h, cabbage leaf dipped, second-instar larvae of Plutella xylostella, fifth day after, read-out: rate of dead pests (%). The gist of the method: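 Cabbage leaf discs dipped in 100 ppm compound (acetone/Tween 20, diluted in sticker water), dried, then infested with ten second-instar larvae and kept at 24° C. Survivors counted on day 5; mortality expressed as dead/tested pests ×100.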

The subject of experiment [2] is Spodoptera litura. The experiment in a line: Insecticidal effect for Spodoptera litura by spraying treatment to host crop (Test Example 2). The settings on record: 120 h; 100 ppm; sprayed on soybean; third-instar larvae of Spodoptera litura; fifth day after; read-out: rate of dead pests (%). The gist of the method: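 Ten third-instar larvae held at 25° C. on two excised primary soybean leaves previously sprayed to dripping with 100 ppm test solution. Mortality (%) calculated from dead versus tested larvae on the fifth day.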

The test system of experiment [3] is Plutella xylostella. The experiment in a line: Insecticidal effect for Plutella xylostella by immersion treatment of host crop root (Test Example 3). The settings on record: Plutella xylostella, 120 h; 25 ppm; cabbage root immersed 5 days; ten second-instar larvae on stem and leaves; counted on the fifth day, 24° C.; read-out: rate of dead pests (%). In short, it runs like this: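 Washed roots of 4-leaf-stage cabbage immersed in 25 ppm compound solution (acetone/Tween 20 in water) for 5 days. Cut stems and leaves then fed to ten second-instar larvae at 24° C; mortality counted after a further 5 days as dead/tested ×100.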

Experiment [4] relates to Spodoptera litura. As to the kind of experiment: Insecticidal effect for Spodoptera litura by immersion treatment of host crop root (Test Example 4). The settings on record: 120 h; 25 ppm; soybean root immersion 5 days; second-instar larvae of Spodoptera litura; fifth day after; read-out: rate of dead pests (%). In short, it runs like this:
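Soil was washed from the roots of soybean plants at the primary-leaf stage, and the roots were immersed in a pesticidal solution held in a light-shielded 100 ml Erlenmeyer flask. The solution was made from acetone containing Tween 20, diluted with ion-exchange water. Five days after root immersion, two primary leaves were cut and placed in a 180 ml cup with ten second-instar Spodoptera litura larvae, then kept at 25° C. Survivors were counted five days later. The rate of dead pests (%) was calculated as dead pests divided by test pests, times 100.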

Experiment [5] concerns Plutella xylostella. The experiment in a line: Pest control effect for Plutella xylostella by plant seedling foot soil surface irrigation treatment, 30th day (Test Example 7). To be noted: 20 mg/plant; soil surface irrigation of cabbage; larvae counted on the 30th day. The procedure: Pest Control Effect for Plutella xylostella by Plant Seedling Foot Soil Surface Irrigation Treatment With Pesticidal Solution
A pesticidal solution which was prepared by dissolving 20 mg of test compound (represented by the compound Nos. in the above Examples) in 0.2 ml of acetone containing Tween 20 (trade name) and then diluting to 3 ml with ion-exchange water, was irrigated on the plant foot soil surface of 2.5-leave stage cabbage. This cabbage plant was transplanted to 1/5000a pot, and left in a facility wherein imagoes of Plutella xylostella were set free to lay eggs successively. On the 30th day after, the number of lavae on the plant was examined. The rate of pest control was calculated by the following formula. rate of pest control (%)=(1−number of pests in treated plant/number of pests in non-treated plant)×100

In experiment [6] the test system is Plutella xylostella. The experiment in a line: Insecticidal effect for Plutella xylostella by seed treatment (Test Example 8). The settings on record: cabbage seed treatment, leaves cut 31st day after sowing, first-instar larvae, third day after. The procedure:
Insecticidal Effect for Plutella xylostella by Seed Treatment 4% aqueous solution of PVA (polyvinylalcohol) was applied to seeds of cabbage. Then the seeds were powdered with test compound (represented by the compound Nos. in the above Examples), and sowed in a Φ 6 cm in diameter Jiffy Pot (trade name). On the 31th day after sowing, the stem and leaves were cut off, and were put into an ice cream cup (180 ml). Fifteen first-instar larvae of Plutella xylostella were set free therein, and the cup was left in a temperature-controlled breeding room (24° C.). On the third day after, the number of surviving Plutella xylostella was examined. The rate of dead pests was calculated by the following formula. rate of dead pests (%)=(number of dead pests/number of test pests)×100

SMILES strings stand for the structures.

As for `O=C(c1c(F)cccc1F)N1COCN(c2ccc(SC(F)(F)F)cc2F)C1=O` [I-44, 3-(2,6-difluorobenzoyl)-5-[2-fluoro-4-(trifluoromethylthio)phenyl]tetrahydro-4H-1,3,5-oxadiazin-4-one], the pest or weed control at 100 ppm in the experiment on Plutella xylostella [1] and with Spodoptera litura [2] was 100% in each case. Moreover, the pest or weed control at 25 ppm with Plutella xylostella [3] and in the experiment with Spodoptera litura [4] was 100% throughout. Moreover, in the experiment with Plutella xylostella [5], the “rate of pest control (%)” value was 96%. Also, the “rate of dead pests (%)” value was determined as 100% in the experiment on Plutella xylostella [6] (1 mg/seed) and 97% in the experiment with Plutella xylostella [6] (5 mg/seed).

Consider `O=C(c1c(F)cccc1F)N1COCN(c2ccc([S+]([O-])C(F)F)cc2F)C1=O` (stereo not shown) [I-42, 3-(2,6-difluorobenzoyl)-5-[4-(difluoromethylsulfinyl)-2-fluorophenyl]tetrahydro-4H-1,3,5-oxadiazin-4-one], for which the pest or weed control at 100 ppm in the experiment with Plutella xylostella [1] and in the experiment on Spodoptera litura [2] was 100% throughout. In addition, the pest or weed control at 25 ppm with Plutella xylostella [3] and in the experiment on Spodoptera litura [4] was 100% each time. The “rate of pest control (%)” value in the experiment with Plutella xylostella [5] is recorded as 94%.

As to `CN1CN(C(=O)c2c(F)cccc2F)C(=O)N(c2ccc(SC(F)(F)F)cc2F)C1` [III-160, 1-(2,6-difluorobenzoyl)-3-[2-fluoro-4-(trifluoromethylthio)phenyl]-5-methyltetrahydro-1,3,5-triazin-2(1H)-one], the pest or weed control at 100 ppm with Plutella xylostella [1] and in the experiment with Spodoptera litura [2] was 100% in each case. In addition, in the experiment with Plutella xylostella [3], the pest or weed control at 25 ppm is 90%. The “rate of pest control (%)” value in the experiment with Plutella xylostella [5] came to 91%.

These data come from patent US20050159599A1, “Cyclic compound, process for producing the same, and pest control agent” (priority 2002, published 2005).
